Laboratory results: patent US12440471B2, “Compositions and methods for the treatment of bronchopulmonary dysplasia (BPD) and BPD-associated pulmonary hypertension” (AyuVis Research, Inc., priority 2021, dated 2025)

Experiments:
[1] = PK study in rat pups by SC or IV (plasma, BALF); type: in vivo
Excerpt: Pharmacokinetic (PK) Profile of AVR-48 (compound 8). The PK studies of AVR-48 were developed and designed in-house, by high performance liquid chromatography (HPLC), in both mouse and rat pups by IV, IP and IN dosing, to check the bioavailability of the drug formulated as solution, suspension or nanoparticle encapsulation in plasma, broncho-alveolar lavage fluid (BALF) and lung tissues.
A sustained level of AVR-48 was observed only where T1/2 was not estimable. For the IV dosed animals only, maximum concentration was followed by decline on PK Day 1 but was followed by sustained level of AVR-48 on PK Day 3. T1/2 was also not estimable. […] In summary, exposure to AVR-48 increased for 100 mg/kg/day for both routes after 3 days of twice daily administration but not for the 150 mg/kg/day groups.
Animals. C57BL/6J mice were purchased from The Jackson Laboratory (Bar Harbor, ME, USA) and were maintained in a breeding colony at Drexel University, Philadelphia, PA, USA. Animal procedures were performed in accordance with the NIH Guide for the Care and Use of Laboratory Animals and were approved by the Institutional Animal Care and Use Committee (IACUC) of Drexel University Philadelphia, PA (Protocol No. 20706). Neonatal rat pups born from female pregnant Sprague Dawley Crl:CD (SD) rats (Charles River Laboratories, St-Constant, QC, Canada) were used for the toxicology and PK studies to evaluate safety, determine the maximum tolerated dose (MTD) and the PK profile of AVR-48. A minimum 6-day acclimation period was allowed between receipt of the animals and the start of treatment to accustom the rats to the laboratory environment. All rat studies were approved by the IACUC of ITR Laboratories, Canada (Protocol No. 74691).
Formulation of AVR-48 for efficacy and toxicokinetic studies. For the mouse dose response efficacy studies, AVR-48 was reconstituted in 0.9% sterile normal saline to give a final dose concentration of […] as a colorless solution, and injected IP (30 μl) on P2 and P4. The PLGA encapsulated AVR-48 or the GFP-tagged analog was resuspended in deionized sterile water to make a nanosuspension with final dose concentration of 0.025, 0.05 and 0.11 mg/kg/drop. The surfactant Curosurf® (Cheisi Parma, Italy), available commercially, was delivered IN at a volume of 3 μl per nostril, on P2 and P4. For the toxicokinetic study of AVR-48 in rat pups, a formulation of 10% DMSO, 20% tetraglycol, 20% PEG 400, and 50% sterile water was made fresh before administration (Shah, Das et al. 2021).

[2] = system: hyperoxia-exposed BPD mouse model; assay: BPD mouse model: western blot of lung homogenates; type: in vivo
Method: Western Blot Analysis. Western blot analyses for TLR4 (Cell Signaling Technology, Danvers, MA; 1:1000), Ang2 (1:500; Sigma, St. Louis, MO), TGFβ, NFkB, TNFα, IL-10, IL-1(3, IL-4, Vegf, eNos, Vegf-D, BmpRII, Vinculin (1:500; SantaCruz, Dallas, TX), were performed, as previously described (Leary, Das et al. 2019), by loading 30 μg of lung protein, followed by immunoblotting with the above antibodies and visualizing with Odyssey infrared imaging system (LI-COR Biosciences, Lincoln, NE). Densitometric quantification was done using ImageJ after normalizing with Vinculin, the loading control housekeeping protein.

[3] = system: hyperoxia-exposed BPD mouse model; assay: BPD mouse model: multiplex ELISA of blood serum cytokines; type: in vivo
Method: Multiplex ELISA. Lung lysate and blood plasma from control and AVR-48 treated group were used for Multiplex ELISA performed on 4 separate inflammatory panels of Meso Scale Discovery multispot assay system (MSD, Rockville, MD) to detect 2 chemokines (MIP-2, MCP-1) and 8 cytokines: IL-21, IP-10, IFNγ, IL-1(3, TNFα, IL-17, IL-10 and IL-6 following the manufacturer's instructions. Briefly, samples were diluted 1:1 in a total volume of 25 μl with the dilution buffer provided with MSD kit and incubated with the above labelling antibodies for 2 h, RT followed by washing with PB ST. The […] was detected using the MSD-specific luminometer.

TLR4 = biological target: T1, TLR4 (Homo sapiens, UniProt O00206); assay: TLR4 level in THP-1 human monocytic cells by ELISA; type: cell-based
T1 construct: Cell lysates were prepared, total protein was quantified and treated with different concentrations; host or cells: THP-1 cells stimulated with PMA for 48 h, then lysed
T1 sequence (O00206 24-839): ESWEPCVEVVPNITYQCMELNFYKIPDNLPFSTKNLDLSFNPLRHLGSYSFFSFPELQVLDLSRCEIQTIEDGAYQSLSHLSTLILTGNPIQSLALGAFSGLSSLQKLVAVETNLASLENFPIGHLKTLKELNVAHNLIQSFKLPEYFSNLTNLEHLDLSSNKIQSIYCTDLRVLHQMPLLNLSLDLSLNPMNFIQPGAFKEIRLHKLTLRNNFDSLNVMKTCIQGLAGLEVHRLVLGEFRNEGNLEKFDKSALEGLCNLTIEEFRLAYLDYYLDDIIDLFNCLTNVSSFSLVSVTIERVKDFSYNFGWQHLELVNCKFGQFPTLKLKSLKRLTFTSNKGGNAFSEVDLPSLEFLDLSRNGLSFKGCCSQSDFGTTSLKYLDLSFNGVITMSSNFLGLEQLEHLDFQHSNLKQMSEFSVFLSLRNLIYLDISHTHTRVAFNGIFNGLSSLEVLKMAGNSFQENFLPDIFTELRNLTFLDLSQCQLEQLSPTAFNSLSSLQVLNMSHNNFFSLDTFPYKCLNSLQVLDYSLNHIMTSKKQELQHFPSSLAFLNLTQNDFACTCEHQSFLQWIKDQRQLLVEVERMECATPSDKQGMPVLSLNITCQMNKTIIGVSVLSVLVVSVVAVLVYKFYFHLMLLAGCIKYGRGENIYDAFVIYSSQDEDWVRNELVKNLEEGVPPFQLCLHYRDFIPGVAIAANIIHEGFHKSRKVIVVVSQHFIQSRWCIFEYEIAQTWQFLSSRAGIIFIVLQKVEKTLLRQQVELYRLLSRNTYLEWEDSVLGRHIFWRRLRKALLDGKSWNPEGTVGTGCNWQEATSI

[4] = system: human lung alveolar type I epithelial cells (AT1); assay: TNF-α and nitric oxide in human lung alveolar type I epithelial cells co-treated with LPS; type: cell-based
[5] = system: Primary splenocytes of C57BL/6J mice; assay: Polarization of mouse primary splenocytes, FACS; type: cell-based
Method: Primary splenocytes of C57BL/6J mice (n=3-5) were treated of AVR 48 for 72 hrs. PMA (200 ng/mL) was used as a positive control. The cells were washed and stained for CD11b and MHC-II and were analyzed by FACS. Dead cells were excluded by Live/dead staining during analysis. It was observed that the expression levels of MHC-II and CD11b increased upon AVR48 stimulation in a dose dependent manner in splenocytes. Monocytes were further analyzed for Ly6c. As described by (Swirski et al, J Clin Invest, 2007, 117(1):195-205. doi: 10.1172/JCI29950), spleen cells with LY6c Hi are considered as inflammatory whereas Ly6c low as resident and anti-inflammatory (FIG. 24A). Next, live singlet cells that were CD11b hi and CD11c low, were gated for F4/80 and MHC-II expression. Cells having increased expression of F4/80 and MHC-II were considered as macrophages whereas cells having low expression of F4/80 were considered as monocytes.

**Q.** For CC(=O)N[C@@H]1C(Oc2ccc([N+](=O)[O-])cc2)OC(CO)C(O)C1O (stereo partly shown) [AVR-48], which “accumulation ratio using AUC(0-t)” value ([1]; BALF, IV dosed animals) is on record?
**A.** Its value is 2.04.

**Q.** What about the “decline of plasma concentration” value ([1]; IV dosed animals) of the same molecule?
**A.** The value was “declined in a bi-exponential fashion”.

**Q.** And the “Tmax (maximum plasma concentration)” value ([1]; Sprague Dawley Crl:CD, rat, in vivo, 150 mg/kg/day)?
**A.** Its value is 60 min.

**Q.** What about the Tmax ([1]; Sprague Dawley Crl:CD, rat, in vivo, 150 mg/kg/day, Tmax (maximum plasma concentration)) of the same molecule?
**A.** Its Tmax is 30 min.

**Q.** What about the Tmax ([1]; Sprague Dawley Crl:CD, rat, in vivo, Tmax) of the same molecule?
**A.** The Tmax was 15 to 60 min.

**Q.** What about the AUC(0-t) ([1]; Sprague Dawley Crl:CD, rat, in vivo, iv, AUC(0-t)) of the same molecule?
**A.** The AUC(0-t) was 4200 ng·h/mL.

**Q.** What about the Cmax ([1]; Sprague Dawley Crl:CD, rat, in vivo, maximum concentration (Cmax)) of the same molecule?
**A.** Its Cmax is 891 to 1070 ng/mL.

**Q.** What about the accumulation in plasma ([1]; after 3 days of twice daily administration) of the same molecule?
**A.** The accumulation in plasma was “no accumulation of the drug”.

**Q.** What about the “inflammation in room air animals” value ([2]; RA+AVR-48 treated group) of the same molecule?
**A.** The value was “increased inflammation”.

**Q.** And the IL-1β ([2]; lung homogenates, vs BPD)?
**A.** Its IL-1β is “marked decrease”.

**Q.** And the IL-13 ([2]; lung homogenates, vs BPD)?
**A.** Its IL-13 is “marked decrease”.

**Q.** And the TNFα ([2]; lung homogenates, vs BPD)?
**A.** Its TNFα is “marked decrease”.

**Q.** What about the “nuclear factor kappa B (NFkB)” value ([2]; lung homogenates, vs BPD) of the same molecule?
**A.** The value was “marked decrease”.

**Q.** And the “Angiopoetin 2 (Ang2)” value ([2]; lung, vs BPD)?
**A.** Its value is “significantly decreased”.

**Q.** What about the Vegf-D protein ([2]; lung, vs BPD) of the same molecule?
**A.** Its Vegf-D protein is “decreases”.

**Q.** What about the IL-10 ([2]; lung, vs BPD group) of the same molecule?
**A.** Its IL-10 is “increased”.

**Q.** What about the “Total vascular endothelial growth factor (Vegf)” value ([2]; lung, vs BPD group) of the same molecule?
**A.** Its value is “increased considerably”.

**Q.** And the “bone morphometric protein receptor (BmpR)II” value ([2]; lung, vs BPD group)?
**A.** The value was “significantly decreased”.

**Q.** What about the “endothelial nitric oxide synthase (eNOS)” value ([2]; lung, vs BPD group) of the same molecule?
**A.** Its value is “significantly decreased”.

**Q.** What about the IL-4 ([2]; lungs, vs BPD group) of the same molecule?
**A.** Its IL-4 is “decrease”.

**Q.** And the TGFβ ([2]; lungs, vs BPD group)?
**A.** The TGFβ was “decrease”.

**Q.** And the “TLR4 expression in the lungs” value ([2]; whole lung homogenates, after treatment)?
**A.** Its value is “increase in the expression of TLR4”.

**Q.** And the IFNγ ([3]; AVR-48 treated group)?
**A.** The IFNγ was “decreased to normal levels”.

**Q.** And the IL-1β ([3]; AVR-48 treated group)?
**A.** Its IL-1β is “decreased to normal levels”.

**Q.** What about the IP-10 ([3]; AVR-48 treated group) of the same molecule?
**A.** The IP-10 was “decreased to normal levels”.

**Q.** What about the MCP-1 ([3]; AVR-48 treated group) of the same molecule?
**A.** Its MCP-1 is “decreased to normal levels”.

**Q.** What about the TNFα ([3]; AVR-48 treated group) of the same molecule?
**A.** Its TNFα is “decreased to normal levels”.

**Q.** And the IL-10 ([3]; BPD group)?
**A.** Its IL-10 is “markedly increased”.

**Q.** And the IL-17 ([3]; treated vs untreated BPD)?
**A.** The IL-17 was “no change”.

**Q.** What about the IL-21 ([3]; treated vs untreated BPD) of the same molecule?
**A.** Its IL-21 is “no change”.

**Q.** And the MIP-2 ([3]; treated vs untreated BPD)?
**A.** The MIP-2 was “no change”.

**Q.** And the “EC50, binding to monocytes/macrophages possibly via surface receptor TLR4” value (TLR4)?
**A.** Its value is “sub nanomolar”.

**Q.** What about the DC50 (TLR4; THP-1 cells, after 48 h of treatment, ELISA, read-out: EC50, decrease of TLR4 level) of the same molecule?
**A.** The DC50 was 0.076 µM.

**Q.** What about the “nitric oxide (NO) production” value ([4]; co-treated with LPS) of the same molecule?
**A.** Its value is “decreased”.

**Q.** And the TNF-α production ([4]; co-treated with LPS, ELISA)?
**A.** Its TNF-α production is “decreased”.

**Q.** And the IL-10 level ([4]; epithelial cells)?
**A.** Its IL-10 level is “No significant level”.

**Q.** What about the IL-β level ([4]; epithelial cells) of the same molecule?
**A.** Its IL-β level is “No significant level”.

**Q.** What about the “resident/anti-inflammatory macrophages (Ly6c hi/low)” value ([5]; 48-72 h) of the same molecule?
**A.** Its value is “produces more resident/anti-inflammatory macrophages”.

**Q.** And the “expression level of CD11b” value ([5]; 72 hrs, dose dependent manner)?
**A.** The value was “increased”.

**Q.** And the “expression level of MHC-II” value ([5]; 72 hrs, dose dependent manner)?
**A.** The value was “increased”.
